Consider one compound from paper PMC4389443 (Respiratory Research, 2015).

The assay deals with BALB/c mice. Description: CXCL1/KC induced cremaster inflammation, intravital microscopy. Format: in vivo, mouse. The note with it: 6 mg.kg^−1 oral, 1 hour prior to rCXCL1. As to the method:
BALB/c mice were anesthetized and 500 ng of murine rCXCL1 in 0.2 ml of saline was administered locally by s.c. injection beneath the right scrotal skin using a 30-G needle, 2 hours before exteriorization. The left cremaster was then prepared for intravital microscopy, as previously described. Briefly, an incision was made in the scrotal skin to expose the left cremaster muscle, which was then carefully removed from the associated fascia. A lengthwise incision was made on the ventral surface of the cremaster muscle using a cautery. The testicle and the epididymis were separated from the underlying muscle and were moved into the abdominal cavity. The muscle was then spread out over an optically clear viewing pedestal and was secured along the edges with a 4–0 suture. […] A video camera (CDD; Sony) was used to project the images onto a monitor, and the images were recorded for playback analysis using a conventional DVD. […] The number of rolling and adherent leukocytes was determined offline during video playback analysis. […] The flux of rolling cells was measured as the number of rolling cells passing by a given point in the venule per minute. A leukocyte was considered to be adherent if it remained stationary for at least 30 s, and total leukocyte adhesion was quantified as the number of adherent cells within a 100 μm length of venule.

With `CC(C)(C)NC(=O)c1ccc(OC/C(=C/F)CN)cc1` [PXS-4728A], the “CXCL1/KC increased number of adhering leukocytes” value is listed as “abolished” and the “CXCL1/KC increased number of rolling leukocytes” value was “abolished”.
